Data as given in publication PMC12651578, “Ultrasound-Assisted Fibril Formation Enhances Complexation of Oat Globulin with Quercetin: Mechanism, Structure Evolution, Delivery Performance” (Foods, 2025).

Assays:
[1] = In vitro simulated gastrointestinal digestion, bioaccessibility of Que; assay type: in vitro ADME; conditions: simulated gastric (2 h) and intestinal (2 h) digestion, 37 °C
Description: The release behavior and bioaccessibility of Que in the complex system were evaluated using an in vitro simulated digestion model with modifications based on previous studies. Briefly, sample solutions loaded with Que (protein concentration: 4 mg/mL) were mixed with equal volumes (10 mL) of simulated gastric fluid containing pepsin. The pH was adjusted to 2.0 using 6 M HCl, and the mixture was incubated at 37 °C with shaking at 100 rpm to simulate gastric digestion for 2 h. Afterward, the pH was adjusted to 7.0 to terminate gastric digestion. For intestinal digestion, 5 mL of the gastric digest was mixed with 5 mL of simulated intestinal fluid containing trypsin and bile salts, followed by incubation at 37 °C for another 2 h. The collected digestion products were centrifuged at 10,000× g for 30 min at 4 °C, and the supernatant was analyzed for Que content to determine the bioaccessibility: (8) Bioaccessibility of Que%=Csupernatant/Cdigesta×100% where Csupernatant denotes the Que content in the supernatant after digestion, and Cdigesta refers to the total Que content in the final digesta after simulated gastrointestinal digestion.

[2] = Photostability of Que under 365 nm UV lamp; assay type: physicochemical; conditions: 1.32 mW/cm^2, 150 min
Description: The photostability of encapsulated Que was assessed using a 365 nm UV lamp with a light intensity of 1.32 mW/cm^2. Aliquots of 5 mL from each sample group were placed 10 cm away from the UV light source and exposed for various durations (0, 10, 30, 60, 90, 120, and 150 min). The retention of Que in each sample was then measured.

[3] = Thermal stability of Que at 85 °C; assay type: physicochemical
Description: The thermal stability of Que was evaluated following a previously described method with slight modifications. Briefly, 5 mL aliquots of free Que suspension (control), OG-Que complex solution, OGF-Que complex solution, and UOGF-Que complex solution were placed in a water bath at 85 °C under dark conditions in sealed containers. At predetermined time intervals (0, 10, 30, 60, 90, 120, and 150 min), samples were withdrawn, rapidly cooled to 25 °C, vortexed, and analyzed for Que retention.

UOGF [4] = target: T1, UOGF; assay: Intrinsic protein fluorescence quenching by quercetin (0-30 uM, 0.3 mg/mL protein, pH 3.2, inner filter corrected), double-logarithmic Stern-Volmer plot, 298 K.; assay type: binding; conditions: n = 3
T1 construct: amyloid-like fibrils, ultrasound pretreatment (pH 2, 9 W/mL, 20 min) then 90 °C for 18 h, partly hydrolysed
Description: (§1) Intrinsic fluorescence spectroscopy was employed to investigate the interaction between OG and its fibrillar products with Que. The binding capacities of OG, OGF, and UOGF were evaluated at pH 3.2 with various concentrations of Que (0, 2.5, 5, 10, 15, 20, and 30 μM). The mixed samples were incubated at different temperatures of 24.85, 30.85, and 36.85 °C (298, 304, and 310 K) for 30 min. Then the intrinsic fluorescence spectra of each sample (0.3 mg/mL) were recorded using a Cary Eclipse fluorescence spectrophotometer (Agilent Technologies, Santa Clara, CA, USA) following to the previously described protocols. The instrument voltage was set to 650 V, with a slit width and scan rate of 5 nm and 1000 nm/min, respectively. Meanwhile, to correct for the inner filter effect, the following equation was applied as described by Ren et al.. (1) Fc=Fm×10^(Aex+Aem)/2 where Fc and Fm represent the corrected and measured fluorescence intensities, while Aex and Aem denote the absorbance at the excitation and emission wavelengths, respectively.
(§2) The fluorescence quenching mechanism of the complex system was further analyzed by fitting the obtained fluorescence intensity data using the Stern–Volmer equation: (2) F0/F=1+KSVQ=1+Kqτ0Q where F0 and F represent the fluorescence intensities of OG and its fibrils before and after the addition of the polyphenol quencher (Que), respectively; KSV is the Stern–Volmer quenching constant; Kq is the quenching rate constant; [Q] is the concentration of the quencher Que; and τ0 is the average lifetime of the fluorophore in the absence of the quencher.
(§3) Considering the static quenching effect between the OG protein/fibrils and the Que ligand, the binding mechanism was further analyzed using a double logarithmic Stern–Volmer equation: (9) lgF0−F/F=lgKa+nlgQ where the binding constant (Ka) and the number of binding sites (n) are key quantitative parameters reflecting the interaction between the bioactive molecule and the protein; the magnitude of Kₐ indicates the binding affinity between Que and the protein.

OGF [5] = target: T2, OGF; assay: as above; assay type: binding; conditions: n = 3
T2 construct: amyloid-like fibrils made by acid-heat treatment without ultrasound, partly hydrolysed
Description: as §1, §2, §3

OG [6] = target: T3, OG; assay: as above; assay type: binding; conditions: n = 3
T3 construct: native oat globulin isolate, unfibrillated, pH 3.2
Description: as §1, §2, §3

UOGF [7] = target: T1, UOGF; assay: Intrinsic protein fluorescence quenching by quercetin (0-30 uM, 0.3 mg/mL protein, pH 3.2, inner filter corrected), double-logarithmic Stern-Volmer plot, 310 K.; assay type: binding; conditions: n = 3
Description: as §1, §2, §3

OGF [8] = target: T2, OGF; assay: as above; assay type: binding; conditions: n = 3
Description: as §1, §2, §3

OG [9] = target: T3, OG; assay: as above; assay type: binding; conditions: n = 3
Description: as §1, §2, §3

UOGF [10] = target: T1, UOGF; assay: Intrinsic protein fluorescence quenching by quercetin (0-30 uM, 0.3 mg/mL protein, pH 3.2, inner filter corrected), double-logarithmic Stern-Volmer plot, 304 K.; assay type: binding; conditions: n = 3
Description: as §1, §2, §3

OGF [11] = target: T2, OGF; assay: as above; assay type: binding; conditions: n = 3
Description: as §1, §2, §3

OG [12] = target: T3, OG; assay: as above; assay type: binding; conditions: n = 3
Description: as §1, §2, §3

## O=c1c(O)c(-c2ccc(O)c(O)c2)oc2cc(O)cc(O)c12 [Que, Quercetin]
[1]
  bioaccessibility of Que: 8.21%
[2]
  retention rate of Que after UV exposure: 27.78%
[3]; 30 min
  retention rate of Que after heating: 45.13%
[3]; 150 min
  retention rate of Que after heating: 26.48%

## O=c1c(O)c(-c2ccc(O)c(O)c2)oc2cc(O)cc(O)c12 [Que, quercetin]
UOGF [4]
  Ka (M^−1), 298 K: 20910 M⁻¹
OGF [5]
  Ka (M^−1), 298 K: 17140 M⁻¹
OG [6]
  Ka (M^−1), 298 K: 12850 M⁻¹
UOGF [7]
  Ka (M^−1), 310 K: 202600 M⁻¹
OGF [8]
  Ka (M^−1), 310 K: 79670 M⁻¹
OG [9]
  Ka (M^−1), 310 K: 16470 M⁻¹
UOGF [10]
  Ka (M^−1), 304 K: 49870 M⁻¹
OGF [11]
  Ka (M^−1), 304 K: 26060 M⁻¹
OG [12]
  Ka (M^−1), 304 K: 16330 M⁻¹
